Test results taken from the supplement of paper PMC10307832.

Columns and labels:
Assay in all cases: relative viability (nuclei count vs DMSO), 5 days (fraction); higher = more cells survive
[1] = test system: NCI-H1437
Procedure, shortened: (§1)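 Lung cancer cell lines were pin-tool dosed in 1536-well plates on the day after seeding, with either a lone drug or a fixed anchor-drug dose plus five library-drug doses (not always all listed) in √10 steps. Nuclei were counted on 4× images after 5 days. Relative viability is the ratio of treated-well to vehicle-well nuclei counts, with each value a median of duplicate plates.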

[2] = test system: NCI-H2009
Procedure, shortened: as §1

[3] = test system: SW 1573
Procedure, shortened: as §1

[4] = test system: HCC-366
Procedure, shortened: as §1

[5] = test system: NCI-H727
Procedure, shortened: as §1

[6] = test system: NCI-H23
Procedure, shortened: as §1

[7] = test system: NCI-H2228
Procedure, shortened: as §1

[8] = test system: HCC-827
Procedure, shortened: as §1

[9] = test system: CAL-12T
Procedure, shortened: as §1

[10] = test system: LCLC-103H
Procedure, shortened: as §1

[11] = test system: HOP-62
Procedure, shortened: as §1

[12] = test system: NCI-H460
Procedure, shortened: as §1

[13] = test system: NCI-H1355
Procedure, shortened: as §1

[14] = test system: EMC-BAC-2
Procedure, shortened: as §1

[15] = test system: COR-L 105
Procedure, shortened: as §1

[16] = test system: NCI-H1792
Procedure, shortened: as §1

[17] = test system: HARA
Procedure, shortened: as §1

[18] = test system: NCI-H1975
Procedure, shortened: as §1

[19] = test system: NCI-H1915
Procedure, shortened: as §1

[20] = test system: NCI-H1755
Procedure, shortened: as §1

[21] = test system: SK-LU-1
Procedure, shortened: as §1

[22] = test system: A-427
Procedure, shortened: as §1

CC(C)Oc1cc(Nc2nc(N[C@@H](C)c3ccc(F)cn3)ncc2Cl)n[nH]1 [AZ23] + CC(C)C[C@H](NC(=O)[C@H](Cc1ccccc1)NC(=O)c1cnccn1)B(O)O [Bortezomib] (partner 0.002 µM)
relative viability ([1]; first compound 0.01 µM): 0.541 | relative viability ([1]; first compound 0.03162 µM): 0.484 | relative viability ([1]; first compound 0.3162 µM): 0.569 | relative viability ([2]; first compound 0.01 µM): 1.1 | relative viability ([2]; first compound 0.03162 µM): 1.06 | relative viability ([2]; first compound 0.3162 µM): 1.21 | relative viability ([3]; first compound 0.01 µM): 1.24 | relative viability ([3]; first compound 0.03162 µM): 1.2 | relative viability ([3]; first compound 0.3162 µM): 1 | relative viability ([4]; first compound 0.01 µM): 1.26 | relative viability ([4]; first compound 0.03162 µM): 1.34 | relative viability ([4]; first compound 0.3162 µM): 1.1 | relative viability ([5]; first compound 0.01 µM): 0.855 | relative viability ([5]; first compound 0.03162 µM): 0.855 | relative viability ([5]; first compound 0.3162 µM): 0.867 | relative viability ([6]; first compound 0.03162 µM): 1.12 | relative viability ([6]; first compound 0.3162 µM): 1.04 | relative viability ([7]; first compound 0.01 µM): 1.49 | relative viability ([7]; first compound 0.03162 µM): 1.19 | relative viability ([7]; first compound 0.3162 µM): 0.84 | relative viability ([8]; first compound 0.01 µM): 1.16 | relative viability ([8]; first compound 0.03162 µM): 1.06 | relative viability ([8]; first compound 0.3162 µM): 1.08 | relative viability ([9]; first compound 0.03162 µM): 1.01 | relative viability ([9]; first compound 0.3162 µM): 0.876 | relative viability ([10]; first compound 0.01 µM): 1.01 | relative viability ([10]; first compound 0.03162 µM): 1.26 | relative viability ([10]; first compound 0.3162 µM): 1.14 | relative viability ([11]; first compound 0.01 µM): 0.821 | relative viability ([11]; first compound 0.03162 µM): 0.517 | relative viability ([11]; first compound 0.3162 µM): 0.867 | relative viability ([12]; first compound 0.01 µM): 0.915 | relative viability ([12]; first compound 0.03162 µM): 1.47 | relative viability ([12]; first compound 0.3162 µM): 1.38 | relative viability ([13]; first compound 0.01 µM): 1.33 | relative viability ([13]; first compound 0.03162 µM): 1.17 | relative viability ([13]; first compound 0.3162 µM): 1.26 | relative viability ([14]; first compound 0.01 µM): 1.2 | relative viability ([14]; first compound 0.03162 µM): 1.11 | relative viability ([14]; first compound 0.3162 µM): 1.16 | relative viability ([15]; first compound 0.01 µM): 0.733 | relative viability ([15]; first compound 0.03162 µM): 1.04 | relative viability ([15]; first compound 0.3162 µM): 0.757 | relative viability ([16]; first compound 0.01 µM): 1.27 | relative viability ([16]; first compound 0.03162 µM): 1.12 | relative viability ([16]; first compound 0.3162 µM): 1.06 | relative viability ([17]; first compound 0.01 µM): 1.04 | relative viability ([17]; first compound 0.03162 µM): 1.1 | relative viability ([17]; first compound 0.3162 µM): 1.27 | relative viability ([18]; first compound 0.01 µM): 0.393 | relative viability ([18]; first compound 0.03162 µM): 0.372 | relative viability ([18]; first compound 0.3162 µM): 0.375 | relative viability ([19]; first compound 0.01 µM): 1.26 | relative viability ([19]; first compound 0.03162 µM): 1.09 | relative viability ([19]; first compound 0.3162 µM): 1.05 | relative viability ([20]; first compound 0.01 µM): 1.16 | relative viability ([20]; first compound 0.03162 µM): 1.07 | relative viability ([20]; first compound 0.3162 µM): 1.03 | relative viability ([21]; first compound 0.03162 µM): 1.33 | relative viability ([21]; first compound 0.3162 µM): 1.26 | relative viability ([22]; first compound 0.01 µM): 1.07 | relative viability ([22]; first compound 0.03162 µM): 1.11 | relative viability ([22]; first compound 0.3162 µM): 0.969

CC(C)Oc1cc(Nc2nc(N[C@@H](C)c3ccc(F)cn3)ncc2Cl)n[nH]1 [AZ23] + C[C@@H](Oc1cc(-c2cnn(C3CCNCC3)c2)cnc1N)c1c(Cl)ccc(F)c1Cl [Crizotinib] (partner 1 µM)
relative viability ([1]; first compound 0.01 µM): 1.21 | relative viability ([1]; first compound 0.03162 µM): 0.996 | relative viability ([1]; first compound 0.3162 µM): 1.03 | relative viability ([2]; first compound 0.01 µM): 1.05 | relative viability ([2]; first compound 0.03162 µM): 1.2 | relative viability ([2]; first compound 0.3162 µM): 1.06 | relative viability ([3]; first compound 0.01 µM): 0.915 | relative viability ([3]; first compound 0.03162 µM): 0.997 | relative viability ([3]; first compound 0.3162 µM): 0.727 | relative viability ([4]; first compound 0.01 µM): 0.688 | relative viability ([4]; first compound 0.03162 µM): 1.05 | relative viability ([4]; first compound 0.3162 µM): 0.587 | relative viability ([5]; first compound 0.01 µM): 1.01 | relative viability ([5]; first compound 0.03162 µM): 1.14 | relative viability ([5]; first compound 0.3162 µM): 0.648 | relative viability ([6]; first compound 0.03162 µM): 0.617 | relative viability ([6]; first compound 0.3162 µM): 0.539 | relative viability ([7]; first compound 0.01 µM): 0.64 | relative viability ([7]; first compound 0.03162 µM): 0.449 | relative viability ([7]; first compound 0.3162 µM): 0.33 | relative viability ([8]; first compound 0.01 µM): 0.993 | relative viability ([8]; first compound 0.03162 µM): 1.03 | relative viability ([8]; first compound 0.3162 µM): 0.881 | relative viability ([9]; first compound 0.01 µM): 0.324 | relative viability ([9]; first compound 0.03162 µM): 0.759 | relative viability ([9]; first compound 0.3162 µM): 0.583 | relative viability ([10]; first compound 0.01 µM): 1.13 | relative viability ([10]; first compound 0.03162 µM): 1.13 | relative viability ([10]; first compound 0.3162 µM): 1.13 | relative viability ([11]; first compound 0.01 µM): 0.992 | relative viability ([11]; first compound 0.03162 µM): 0.912 | relative viability ([11]; first compound 0.3162 µM): 1.08 | relative viability ([12]; first compound 0.01 µM): 0.827 | relative viability ([12]; first compound 0.03162 µM): 1.04 | relative viability ([12]; first compound 0.3162 µM): 0.834 | relative viability ([13]; first compound 0.01 µM): 1.19 | relative viability ([13]; first compound 0.03162 µM): 1.11 | relative viability ([13]; first compound 0.3162 µM): 1.09 | relative viability ([14]; first compound 0.01 µM): 0.804 | relative viability ([14]; first compound 0.03162 µM): 0.817 | relative viability ([14]; first compound 0.3162 µM): 0.777 | relative viability ([15]; first compound 0.01 µM): 0.618 | relative viability ([15]; first compound 0.03162 µM): 0.825 | relative viability ([15]; first compound 0.3162 µM): 0.786 | relative viability ([16]; first compound 0.01 µM): 1.47 | relative viability ([16]; first compound 0.03162 µM): 1.27 | relative viability ([16]; first compound 0.3162 µM): 1.01 | relative viability ([17]; first compound 0.01 µM): 1.2 | relative viability ([17]; first compound 0.03162 µM): 0.904 | relative viability ([17]; first compound 0.3162 µM): 0.983 | relative viability ([18]; first compound 0.01 µM): 1.44 | relative viability ([18]; first compound 0.03162 µM): 0.953 | relative viability ([18]; first compound 0.3162 µM): 1.09 | relative viability ([19]; first compound 0.01 µM): 1.28 | relative viability ([19]; first compound 0.03162 µM): 0.936 | relative viability ([19]; first compound 0.3162 µM): 0.979 | relative viability ([20]; first compound 0.01 µM): 1.1 | relative viability ([20]; first compound 0.03162 µM): 1.01 | relative viability ([20]; first compound 0.3162 µM): 0.964 | relative viability ([21]; first compound 0.01 µM): 0.94 | relative viability ([21]; first compound 0.03162 µM): 1.05 | relative viability ([21]; first compound 0.3162 µM): 0.978 | relative viability ([22]; first compound 0.01 µM): 0.942 | relative viability ([22]; first compound 0.03162 µM): 0.951 | relative viability ([22]; first compound 0.3162 µM): 0.754
